The text below walks through data of PubChem BioAssay (NCI).

Some test systems named below: 786-0 renal; A549 NSCLC; ACHN renal; DU-145 prostate; HS 578T breast; IGROV1 ovarian; LOX IMVI melanoma; MALME-3M melanoma; MDA-MB-435; NCI-H226 lung; NCI-H23 lung; NCI-H522 lung; NCI/ADR-RES ovarian; OVCAR-3 ovarian; OVCAR-8 ovarian; SF-539 CNS; SW-620 colon; TK-10 renal; UO-31 renal.
Common to all, as to assay: inhibition of tumour cell growth, NCI panel, 48 h

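Cells were grown in 96-well plates and exposed to each compound for 48 hours at five concentrations; endpoints were interpolated linearly between bracketing concentrations, or set to the highest concentration if not reached. TGI is the concentration that stops growth completely.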 Bounds are passed on as bounds.

For the compound `CCOc1ccccc1N=NC1C(=O)N(C(=O)CC(=O)Nc2ccccc2Cl)N=C1C` (configuration not stated), the TGI with 786-0 renal was above 100 µM; in the experiment with A549 NSCLC it was above 100 µM; in the experiment on ACHN renal, above 100 µM; with DU-145 prostate, above 100 µM; in the experiment on HS 578T breast, 89 µM; in the experiment on IGROV1 ovarian, above 100 µM. In addition, the TGI with LOX IMVI melanoma, with MALME-3M melanoma, with MDA-MB-435, with NCI-H226 lung, in the experiment with NCI-H23 lung and in the experiment with NCI-H522 lung was above 100 µM throughout. The TGI with NCI/ADR-RES ovarian, with OVCAR-3 ovarian, in the experiment with OVCAR-8 ovarian, in the experiment on SF-539 CNS, in the experiment with SW-620 colon and in the experiment with TK-10 renal was above 100 µM in each case. The compound also had a TGI with UO-31 renal above 100 µM.

As to `Cc1ccc(-c2n[nH]c(CC#N)n2)cc1`, the TGI with 786-0 renal, in the experiment with A549 NSCLC, with ACHN renal, in the experiment with DU-145 prostate, with HS 578T breast and with IGROV1 ovarian was above 100 µM throughout. The TGI in the experiment with LOX IMVI melanoma, in the experiment with MALME-3M melanoma, with MDA-MB-435, with NCI-H23 lung, with NCI-H522 lung and in the experiment on NCI/ADR-RES ovarian was above 100 µM each time. For the same compound, the TGI in the experiment on OVCAR-3 ovarian, in the experiment with OVCAR-8 ovarian, in the experiment with SF-539 CNS, with SW-620 colon, in the experiment on TK-10 renal and with UO-31 renal was above 100 µM in each case.

As to `CCOC(=O)c1c(N2CCOCC2)[nH]c(=O)c(C(c2ccc(N(C)C)cc2)c2c(O)c(C(=O)OCC)c(N3CCOCC3)[nH]c2=O)c1O`, the TGI with 786-0 renal, in the experiment with A549 NSCLC, in the experiment with ACHN renal, with DU-145 prostate, in the experiment with HS 578T breast and in the experiment with LOX IMVI melanoma was above 100 µM each time. Further, the TGI in the experiment on MALME-3M melanoma, in the experiment on MDA-MB-435, in the experiment with NCI-H226 lung, with NCI-H23 lung, in the experiment with NCI-H522 lung and in the experiment with NCI/ADR-RES ovarian was above 100 µM each time. For the same compound, the TGI with OVCAR-3 ovarian, in the experiment on OVCAR-8 ovarian, in the experiment on SF-539 CNS, in the experiment with SW-620 colon, in the experiment on TK-10 renal and in the experiment on UO-31 renal was above 100 µM in each case.

On to `Cc1nc(SCC(=O)Nc2ccccc2)c2sc(=S)n(-c3ccccc3)c2n1`, for which the TGI in the experiment on 786-0 renal, with A549 NSCLC, in the experiment on ACHN renal, with DU-145 prostate, in the experiment with HS 578T breast and in the experiment on IGROV1 ovarian was above 10 µM in each case. Also, the TGI with LOX IMVI melanoma is above 10 µM; with MALME-3M melanoma, above 10 µM; in the experiment with MDA-MB-435 it was above 10 µM; in the experiment on NCI-H226 lung, 8.99 µM; in the experiment on NCI-H23 lung, above 10 µM; in the experiment with NCI-H522 lung, above 10 µM. The TGI with NCI/ADR-RES ovarian, in the experiment on OVCAR-3 ovarian, with OVCAR-8 ovarian, in the experiment on SF-539 CNS, with SW-620 colon and with TK-10 renal was above 10 µM throughout.

In the case of `C[C@H](C(=O)N1C(=O)O[C@@H](c2ccccc2)[C@H]1C)[C@H](c1ccccc1)N(Cc1ccccc1)OC(=O)c1ccccc1`, the TGI in the experiment on 786-0 renal, with A549 NSCLC, with ACHN renal, with DU-145 prostate, in the experiment with HS 578T breast and with IGROV1 ovarian was above 100 µM in each case. Besides, the TGI in the experiment on LOX IMVI melanoma, with MALME-3M melanoma, in the experiment with MDA-MB-435, in the experiment with NCI-H226 lung, in the experiment with NCI-H23 lung and in the experiment with NCI-H522 lung was above 100 µM in each case. The TGI in the experiment with NCI/ADR-RES ovarian, in the experiment on OVCAR-8 ovarian, with SF-539 CNS, with SW-620 colon, in the experiment on TK-10 renal and in the experiment on UO-31 renal was above 100 µM each time.

For `CNC(=S)N/N=C(\C)c1ccc(OC)cc1O`, the TGI in the experiment on 786-0 renal, with A549 NSCLC, in the experiment with ACHN renal, in the experiment with DU-145 prostate, in the experiment on HS 578T breast and in the experiment on IGROV1 ovarian was above 100 µM throughout. In addition, the TGI in the experiment with LOX IMVI melanoma, in the experiment with MALME-3M melanoma, in the experiment with MDA-MB-435, with NCI-H226 lung, with NCI-H23 lung and with NCI-H522 lung was above 100 µM each time. Also, the TGI with NCI/ADR-RES ovarian, in the experiment on OVCAR-3 ovarian, in the experiment with OVCAR-8 ovarian, in the experiment with SF-539 CNS, in the experiment on SW-620 colon and in the experiment on UO-31 renal was above 100 µM throughout.

On to `COC(=O)C1=C(C(=O)OC)C2(/N=C(\Nc3ccccc3)c3ccccc3)N(c3ccc(OC)cc3)CC(c3ccccc3)N2O1` (configuration not stated), for which the TGI in the experiment with 786-0 renal, with A549 NSCLC, with ACHN renal, in the experiment on DU-145 prostate, in the experiment on HS 578T breast and in the experiment on IGROV1 ovarian was above 100 µM in each case. Also, the TGI in the experiment with LOX IMVI melanoma, in the experiment on MALME-3M melanoma, with MDA-MB-435, with NCI-H23 lung, in the experiment on NCI-H522 lung and in the experiment on NCI/ADR-RES ovarian was above 100 µM in each case. In addition, the TGI with OVCAR-3 ovarian, in the experiment with OVCAR-8 ovarian, in the experiment with SF-539 CNS, with SW-620 colon, in the experiment with TK-10 renal and in the experiment with UO-31 renal was above 100 µM in each case.
